Data published in patent publication US5482934A, “Pregna-1,4-diene3,20-dione-16-17-acetal-21 esters, process for their preparation, composition, and methods for the treatment of inflammatory conditions” (priority 1994, dated 1996).

How the values were obtained:
[1] = system: cotton-pellet-induced granuloma; test: cotton pellet granuloma bioassay, topical anti-inflammatory activity (inhibitory effect on granuloma weight); assay type: in vivo, Male Wistar rats; conditions: for Topical anti-inflammatory activity (Cotton Pellet), ED50: local application on implanted pellet, 4 dosage levels, 7 days; for Therapeutic index systemic ED50 / topical ED50: thymus inhibition ED50 / cotton pellet ED50, 10080 min
Excerpt: The glucocorticoid activity of these products was studied in comparison with that of budesonide: pregna-1,4-diene-3,20-dione, 16,17-butylidenebis(oxy)-11-21-dihydroxy-(11β,16α). The pharmacologic action on the acetonides triamcinolone acetonide and flunisolide was also studied.
(§1) Anti-inflammatory effects of the compounds were screened in the cotton pellet granuloma bioassay for identification of lead compounds. (Meier et al., Eperimentia 6, 469, 1950). Male Wistar rats were used, ranging in weight between 90 and 120 g, at the rate of 10 animals per group, previously identified and quartered in individual cages. The animals had free access to feed and drink throughout the trial.
(§2) Cotton pellets weighing exactly 20 mg were prepared, sterilized for 2 hr. at 160° C. soaked with 50 λl solution of the product or with the solvent before implantation, and subsequently the solvent is evaporated before application. The implantation was performed subcutaneously in the axillary zone of the animals previously anesthetized with ether (right axilla pellet with product, left axilla pellet with solvent). Animals in which pellets without product were implanted were used as controls.
(§3) The drug was applied in alcohol solution at 4 dosage levels. Once the pellets were implanted, the animals were kept under normal rearing conditions, isolated for 7 days and then weighed, after which they were sacrificed by exsanguination.
The topical activity was determined by the inhibitory effect on the weight of the cotton-pellet-induced granuloma; the granulomas were extracted and weighed (pellet and connective tissue surrounding them, dried for 24 hr in a 60° oven, and weighed).
(§4) Anti-inflammatory ED50 (topical effect), thymus inhibition ED50 (systemic effect), therapeutic index (systemic ED50 /topical ED50), and the therapeutic index relative to budesonide (=1).
(§5) All of the ED50 values were calculated from the linear regression lines with the confidence limits.

thymus = system: thymus; design: species or system Male Wistar rats; conditions: rat, in vivo, 10080 min
Excerpt: All of the steroids described in this invention are pharmacologically active compounds. The glucocorticoid activity of these products was studied in comparison with that of budesonide: pregna-1,4-diene-3,20-dione, 16,17-butylidenebis(oxy)-11-21-dihydroxy-(11β,16α). The pharmacologic action on the acetonides triamcinolone acetonide and flunisolide was also studied.
as §1, §2, §3
Extraction and weighing of the thymus and adrenals were performed in all animals and a fluorometric determination of the cortisol plasma levels was made. We consider the variation in these parameters indicative of the systemic glucocorticoid activity of the products.
as §4, §5

[2] = corticosteroids used in aerosol form; cited from earlier work

Row | Structure (SMILES) | Topical anti-inflammatory activity (Cotton Pellet), ED50 [1] | Therapeutic index systemic ED50 / topical ED50 [1] | Systemic glucocorticoid activity (Thymus inhibition), ED50 (thymus) | effect in aerosol form [2]
1 | CC1(C)O[C@@H]2C[C@H]3[C@@H]4CCC5=CC(=O)C=C[C@]5(C)[C@@]4(F)[C@@H](O)C[C@]3(C)[C@]2(C(=O)CO)O1 (stereo in doubt) [TRIAMCINOLONE ACETONIDE, triamcinolone acetonide, reference compound] | 220.7 μg/pellet | 0.7 | 156.4 μg/pellet | highly positive effect
2 | CCCC1O[C@@H]2C[C@H]3[C@@H]4CCC5=CC(=O)C=C[C@]5(C)[C@H]4[C@@H](O)C[C@]3(C)[C@]2(C(=O)CO)O1 (stereo partly drawn) [BUDESONIDE, pregna-1,4-diene-3,20-dione, 16,17-butylidenebis(oxy)-11-21-dihydroxy-(11β,16α), reference compound] | 163.6 μg/pellet | 1.09 | 178.6 μg/pellet | highly positive effect
3 | CC(C)C(=O)OCC(=O)C12OC(C3CCCCC3)OC1CC1C3CCC4=CC(=O)C=CC4(C)C3C(O)CC12C [Compound 7, (22R,S)-pregna 1,4-diene-3,20-dione, 16,17-[[cyclohexylmethylidyne]bis (oxy)]-11-hydroxy-21-(2-methyl-1-oxo-propoxy)-(11β,16α)] | 21.7 μg/pellet | 28.3 | 614.7 μg/pellet | –
4 | CC(C)C(=O)OCC(=O)C12OC(C3CCCCC3)OC1CC1C3CCC4=CC(=O)C=CC4(C)C3C(O)CC12C [Compound 8, (22,S)-pregna 1,4-diene-3,20-dione 16,17-[[cyclohexyl-methylidyne]bis (oxy)]-11-hydroxy-21-(2-methyl-1-oxo-propoxy)-(11β,16α)] | 20.5 μg/pellet | 29.6 | 608 μg/pellet | –
5 | CC(C)C(=O)OCC(=O)C12OC(C3CCCCC3)OC1CC1C3CCC4=CC(=O)C=CC4(C)C3C(O)CC12C (centres unmarked) [Compound 9] | 25.4 μg/pellet | 26.2 | 667.1 μg/pellet | –
6 | CCCCC1OC2CC3C4CCC5=CC(=O)C=CC5(C)C4C(O)CC3(C)C2(C(=O)COC(C)=O)O1 [Compound 10, (22R,S)-of pregna 1,4-diene-3,20-dione-21-(acetyloxy)-11-hydroxy-16,17-(pentylidene) bis(oxy)-(11β,16α)] | 59.9 μg/pellet | 9.7 | 583.2 μg/pellet | –
7 | CCCCC1OC2CC3C4CCC5=CC(=O)C=CC5(C)C4C(O)CC3(C)C2(C(=O)COC(C)=O)O1 [Compound 11, (22S)-pregna 1,4-diene-3,20-dione-21-(acetyloxy)-11-hydroxy-16,17-(pentylidene)-bis-(oxy)-(11β,16α)] | 43 μg/pellet | 12.9 | 555.3 μg/pellet | –
8 | CCCCC1OC2CC3C4CCC5=CC(=O)C=CC5(C)C4C(O)CC3(C)C2(C(=O)COC(C)=O)O1 (centres unmarked) [Compound 12] | 74.7 μg/pellet | 7.9 | 592.2 μg/pellet | –
9 | CC(C)C(=O)OCC(=O)C12OC(C3CCCCC3)OC1CC1C3CC(F)C4=CC(=O)C=CC4(C)C3(F)C(O)CC12C [Compound 13, (22R,S)-pregna 1,4-diene-3,20-dione-16,17-(cyclohyxylmethylidine)-bis-(oxy)-6,9-difluoro-11-hydroxy-21-(methyl-1-oxo-propoxy)-(11β,16α)] | 4.5 μg/pellet | 12 | 54 μg/pellet | –
10 | CC(C)C(=O)OCC(=O)C12OC(C3CCCCC3)OC1CC1C3CC(F)C4=CC(=O)C=CC4(C)C3(F)C(O)CC12C [Compound 14, (22S)-pregna-1,4-diene-3,20-dione-16,17-(cyclohexylmethylidine)-bis-(oxy)-6,9-difluoro-11-hydroxy-21-(s-methyl-1-oxo-propoxy)-(11β,16α)] | 3.6 μg/pellet | 13.6 | 49 μg/pellet | –
11 | CC(C)C(=O)OCC(=O)C12OC(C3CCCCC3)OC1CC1C3CC(F)C4=CC(=O)C=CC4(C)C3(F)C(O)CC12C (centres unmarked) [Compound 15] | 5.2 μg/pellet | 10.8 | 56.3 μg/pellet | –
12 | CC1(C)O[C@@H]2C[C@H]3[C@@H]4C[C@H](F)C5=CC(=O)C=C[C@]5(C)[C@H]4[C@@H](O)C[C@]3(C)[C@]2(C(=O)CO)O1 [FLUNISOLIDE, flunisolide, reference compound] | 351.6 μg/pellet | 0.44 | 156 μg/pellet | highly positive effect
13 | CCC(=O)OCC(=O)[C@@]1(OC(=O)CC)[C@@H](C)C[C@H]2[C@@H]3CCC4=CC(=O)C=C[C@]4(C)[C@@]3(Cl)[C@@H](O)C[C@@]21C [beclomethasone dipropionate] | – | – | – | highly positive effect
14 | CCCCC(=O)O[C@]1(C(=O)CO)[C@@H](C)C[C@H]2[C@@H]3CCC4=CC(=O)C=C[C@]4(C)[C@@]3(F)[C@@H](O)C[C@@]21C [betamethasone valerate] | – | – | – | highly positive effect
